# Measurements taken from US20230390269A1, “METHOD OF TREATMENT WITH TRADIPITANT” (Vanda Pharmaceuticals Inc., priority 2017, published 2023).
# Bridge positions count the residues as written; N and C are the ends. Square brackets hold non-standard residues; d marks the D form. Peptide text beside a SMILES is read from it. * marks the point of attachment. NH(β-GlcNAc) = CC(=O)N[C@@H]1[C@@H](O)[C@H](O)[C@@H](CO)O[C@H]1N*; Dap = NC[C@H](N)C(=O)O
# Tests used:
# NK-1 = molecular target: T1, NK-1 (Homo sapiens, UniProt P25103); conditions: patients with IBS, double-blind study; cited from earlier work
# T1 construct: host or cells: patients with IBS
# T1 sequence (P25103 whole entry): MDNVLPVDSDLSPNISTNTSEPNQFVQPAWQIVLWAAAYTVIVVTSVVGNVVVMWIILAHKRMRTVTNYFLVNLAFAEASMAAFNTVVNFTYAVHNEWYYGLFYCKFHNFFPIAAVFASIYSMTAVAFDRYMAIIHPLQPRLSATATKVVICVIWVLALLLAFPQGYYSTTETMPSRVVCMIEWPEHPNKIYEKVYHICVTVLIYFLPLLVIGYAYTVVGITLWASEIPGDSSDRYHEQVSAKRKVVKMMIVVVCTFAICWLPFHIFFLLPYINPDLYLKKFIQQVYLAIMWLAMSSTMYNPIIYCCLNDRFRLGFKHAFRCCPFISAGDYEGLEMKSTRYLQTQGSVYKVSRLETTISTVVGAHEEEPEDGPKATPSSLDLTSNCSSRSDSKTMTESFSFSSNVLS
# NK-1 receptor [1] = molecular target: T2, NK-1 receptor (Meriones unguiculatus, UniProt Q5DUB1); assay: NK-1 agonist (GR73632, icv)-induced foot-tapping behavior in gerbils; format: in vivo, Mongolian gerbil
# T2 construct: from tissue; host or cells: living gerbil, brain (icv agonist)
# T2 sequence (Q5DUB1 whole entry): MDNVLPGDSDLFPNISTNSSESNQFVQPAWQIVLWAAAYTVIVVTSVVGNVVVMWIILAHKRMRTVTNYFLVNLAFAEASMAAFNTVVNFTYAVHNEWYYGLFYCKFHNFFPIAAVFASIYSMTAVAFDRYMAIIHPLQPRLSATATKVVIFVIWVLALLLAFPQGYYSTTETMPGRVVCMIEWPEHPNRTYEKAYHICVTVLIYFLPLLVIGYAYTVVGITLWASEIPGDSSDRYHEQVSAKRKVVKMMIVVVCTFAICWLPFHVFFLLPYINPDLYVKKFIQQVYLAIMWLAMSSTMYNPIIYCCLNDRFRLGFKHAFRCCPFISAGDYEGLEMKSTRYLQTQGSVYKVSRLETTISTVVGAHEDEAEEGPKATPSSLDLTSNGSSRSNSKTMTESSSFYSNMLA
# Procedure: Male Mongolian gerbils (Harlan Sprague Dawley, Indianapolis, IN) weighing 26 to 40 grams are administered the selective neurokinin-1 receptor agonist GR73632 (3 pmol) via direct, vertical, free-hand intracerebroventricular (icy) injection to a depth of 4.5 mm below bregma with a cuffed 27-gauge needle attached to a 50 μl Hamilton syringe. Immediately after injection, animals are placed individually into isolated chambers with pressure-sensitive velocimeter platform floors (San Diego Instruments acoustic startle apparatus) that detect and quantify vibration. The San Diego Instruments “SR” DOS-based computer program is used on a PC to record the number of foot-taps over the following 6 to 10 minutes, beginning 30 seconds after the floor was lightly tapped. Raw data is converted with a Microsoft Excel macro that determines the number of events over threshold (125) in each 250-millisecond time bin over the 5.5 minutes following onset of observation. The total number and average intensity of events over the duration is determined. Total number of taps is analyzed with one-way ANOVA and post-hoc Dunnett's test using JMP statistical software.
# A dose-response curve (with doses of 0.3, 1, 3 and 10 pmols, icy) is initially generated with the NK-1 agonist GR73632. […] The 3 pmol dose is subsequently chosen as the dose of choice for antagonism experiments.
# NK-1 antagonists are tested for their ability to attenuate GR73632-induced foot tapping. NK-1 antagonists are administered (po) via oral feeding tube at doses and time points specified in each experiment. All animals receive only one dose of NK-1 antagonists in all tests.
# NK-1 antagonists are administered at multiple doses (at least 3; one dose per animal) and response to GR73632 is measured.
# Tradipitant is dissolved in 1% CMC/0.5% SLS/0.085% PVP vehicle.
# NK-2 receptor [2] = molecular target: T3, NK-2 receptor (Homo sapiens, UniProt P21452); conditions: in vivo; cited from earlier work
# T3 sequence (P21452 1-398): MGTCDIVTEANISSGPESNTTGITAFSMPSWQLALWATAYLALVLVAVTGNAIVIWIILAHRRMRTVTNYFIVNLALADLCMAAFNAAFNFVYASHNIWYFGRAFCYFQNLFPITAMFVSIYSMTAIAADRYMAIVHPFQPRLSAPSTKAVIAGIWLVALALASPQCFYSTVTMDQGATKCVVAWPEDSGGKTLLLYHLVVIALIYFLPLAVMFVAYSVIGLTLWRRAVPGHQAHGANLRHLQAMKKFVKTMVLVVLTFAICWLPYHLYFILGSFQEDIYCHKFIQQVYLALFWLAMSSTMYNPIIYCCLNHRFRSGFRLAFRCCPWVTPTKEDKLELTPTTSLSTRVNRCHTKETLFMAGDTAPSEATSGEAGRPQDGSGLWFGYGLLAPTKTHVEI
# [3] = system: panel of 74 other receptors, enzymes, and ion channels; assay: Selectivity panel of 74 other receptors, enzymes and ion channels; format: binding
# Procedure: By 3 different measures, tradipitant is also a potent centrally active NK-1 antagonist in vivo.
# (§1) In addition, tradipitant is evaluated in a panel of 74 other receptors, enzymes, and ion channels.
# NK-2 receptor [4] = molecular target: T3, NK-2 receptor; assay: NK-2 receptor inhibition (selectivity panel); format: binding
# Procedure: as §1
# NK-3 receptor = molecular target: T4, NK-3 receptor (Homo sapiens, UniProt P29371); assay: NK-3 receptor inhibition (selectivity panel); format: binding
# T4 sequence (P29371 1-465): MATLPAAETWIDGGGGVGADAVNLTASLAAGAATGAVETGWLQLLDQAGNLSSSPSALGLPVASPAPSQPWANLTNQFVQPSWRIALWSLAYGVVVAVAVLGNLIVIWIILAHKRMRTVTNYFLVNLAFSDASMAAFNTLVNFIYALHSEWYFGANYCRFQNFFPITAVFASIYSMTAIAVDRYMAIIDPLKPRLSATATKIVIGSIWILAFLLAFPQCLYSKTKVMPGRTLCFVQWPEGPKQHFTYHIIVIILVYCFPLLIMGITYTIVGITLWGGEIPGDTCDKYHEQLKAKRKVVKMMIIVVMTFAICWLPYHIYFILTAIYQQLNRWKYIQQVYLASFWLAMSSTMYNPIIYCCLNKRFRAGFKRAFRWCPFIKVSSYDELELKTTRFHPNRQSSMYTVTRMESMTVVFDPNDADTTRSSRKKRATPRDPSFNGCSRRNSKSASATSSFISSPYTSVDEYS
# Procedure: as §1
# NK-1 receptor [5] = molecular target: T5, NK-1 receptor (Cavia porcellus, UniProt P30547); assay: GR73632-induced vocalization in guinea pigs; format: in vivo, guinea pig
# T5 construct: from tissue; host or cells: living guinea pig, brain (icv agonist)
# T5 sequence (P30547 whole entry): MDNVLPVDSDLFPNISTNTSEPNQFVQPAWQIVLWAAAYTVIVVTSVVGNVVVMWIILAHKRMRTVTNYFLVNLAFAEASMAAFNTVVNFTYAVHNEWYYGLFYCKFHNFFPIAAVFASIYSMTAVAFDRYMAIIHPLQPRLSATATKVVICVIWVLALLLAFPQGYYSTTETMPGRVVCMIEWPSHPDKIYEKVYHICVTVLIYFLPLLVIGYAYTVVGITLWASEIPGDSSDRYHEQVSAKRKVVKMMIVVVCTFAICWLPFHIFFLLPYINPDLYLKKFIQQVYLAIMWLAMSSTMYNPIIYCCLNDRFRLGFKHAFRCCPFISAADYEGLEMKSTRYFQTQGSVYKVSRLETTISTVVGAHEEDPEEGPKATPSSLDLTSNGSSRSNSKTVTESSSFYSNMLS
# Procedure: When introduced into the brain, the NK-1 receptor agonist, substance P (SP) elicits distress vocalizations in the guinea pig that can be inhibited by NK-1 antagonists (Kramer et al. 1998; Rupniak et al. 2000).
# Male Dunkin/Hartley guinea pigs (200 to 250 grams) are orally administered either vehicle or an NK-1 antagonist. Approximately 45 minutes later (for dose response studies), the animals are anesthetized and 0.1 nmol of GR73632 (SP analog) in a vehicle volume of 5 μl is injected into the cerebral ventricle at the intersection of bregma and the midline of the skull. Animals are placed in a dark testing chamber located inside of a sound attenuation cubicle and vocalizations are recorded for 30 minutes following recovery from anesthesia. The time spent vocalizing is quantified for each animal. In the duration of action study (FIG. 5), 0.1 mg/kg of tradipitant or vehicle solution is administered orally and then 2, 4, or 7 hours later, 0.1 nmol of GR73632 is administered into the cerebral ventricle as described above. Vocalizations are recorded and quantified as indicated above. Vehicle solutions are either CMC (FIG. 4 data) or a 10% ethanol/emulphor, 10% propylene glycol solution (FIGS. 5 and 6). Data is analyzed using one-tailed t-tests.
# brain NK-1 receptors = assay: Occupancy of brain NK-1 receptors with tracer GR205171; format: in vivo; conditions: p.o., tracer GR205171 iv
# Procedure: A tracer NK-1 antagonist compound (GR205171) is used to evaluate the ability of other NK-1 antagonists to occupy the brain NK-1 receptors. In these studies, the test compounds are administered orally and the tracer compound administered intravenously afterward. The occupancy of the NK-1 receptors is evaluated by quantitating the amount of the tracer compound bound to the brain NK-1 receptors after increasing doses of the test compounds.
# nausea in gastroparesis = assay: Phase II study in patients with gastroparesis, open label extension; format: in vivo, human; conditions: 85 mg bid
# Source text: In a phase II study of tradipitant in patients with gastroparesis, participants initially enter 4 week screening period prior to treatment with tradipitant, during which they answer a daily symptom questionnaire rating their nausea severity on a scale of […] 0 represents no nausea, 1 represents very mild nausea, 2 represents mild nausea, 3 represents moderate nausea, 4 represents severe nausea, and 5 represents very severe nausea. After the 4 week screening period, patients enter the double blind randomized portion of the study, in which they receive either tradipitant 85 mg bid, or placebo. After 4 weeks of blinded study drug treatment, patients have the opportunity to enter an additional 8 week open label extension, during which each subject receives tradipitant 85 mg bid. 64 subjects participate in at least one week of the open label tradipitant dosing portion of the study. The average daily diarized nausea scores are reported for subjects during the 4 week screening period and during the up to 8 week open label extension.
compound,measurement,setting,value
"COc1ccc(C(C)C)cc1CN[C@H]1C2CCN(CC2)[C@H]1C(c1ccccc1)c1ccccc1 [CJ-11,974]",discomfort associated with rectosigmoidal distension,NK-1,alleviated the discomfort
C[C@@H](O[C@H]1OCCN(Cc2n[nH]c(=O)[nH]2)[C@H]1c1ccc(F)cc1)c1cc(C(F)(F)F)cc(C(F)(F)F)c1 [MK-869],time after administration up to which foot-tapping is significantly inhibited,NK-1 receptor [1]; 1.2 mg/kg po,up to 24 hours
same,"ED50, inhibition of foot-tapping behavior","NK-1 receptor [1]; po, GR 73632 3 pmol icv, gerbil",0.4 ± 0.05 mg/kg
CC(=O)N[C@@H]1[C@@H](O)[C@H](O)[C@@H](CO)O[C@H]1NC(=O)C[C@@H]1NC(=O)[C@H](CC(C)C)NC(=O)[C@@H]2CNC(=O)C[C@H](NC1=O)C(=O)N[C@@H](Cc1c[nH]c3ccccc13)C(=O)N[C@@H](Cc1ccccc1)C(=O)N2 [nepadutant] (cyclo(D(NH(β-GlcNAc))DWF[Dap]L); lactam 2-5),basal gastrointestinal motility,NK-2 receptor [2],without affecting
same,motility-stimulating effect of neurokinin A,NK-2 receptor [2],effectively antagonized
"O=C(c1ccccc1Cl)c1cccnc1-c1nnn(Cc2cc(C(F)(F)F)cc(C(F)(F)F)c2)c1-c1ccncc1 [tradipitant, {2-[1-(3,5-bistrifluoromethylbenzyl)-5-pyridin-4-yl-1H-[1,2,3]triazol-4-yl]-pyridin-3-yl}-(2-chlorophenyl)-methanone]","activity in panel of 74 additional receptors, enzymes, and ion channels including NK-2 and NK-3",[3],no significant activity
same,inhibition of binding,"[3]; test concentration 1 μM, 74 targets",≤ 50%
same,inhibition at the NK-2 receptor,NK-2 receptor [4],no significant inhibition
same,inhibition at the NK-3 receptor,NK-3 receptor,no significant inhibition
same,time after administration up to which foot-tapping is significantly inhibited,NK-1 receptor [1]; 0.1 mg/kg po,up to 7 hours
same,time after administration up to which foot-tapping is significantly reversed,NK-1 receptor [1]; 1 mg/kg,up to 16 hours
same,inhibition of vocalization at low doses,"NK-1 receptor [5]; at and below 0.1 mg/kg, 0.05 and 0.025 mg/kg, p<0.001",retains significant inhibitory activity
same,"suppression of agonist-induced vocalization, duration of activity study","NK-1 receptor [5]; single dose 0.1 mg/kg oral, 7 hours after administration",significantly active
same,"estimated ED50, brain NK-1 receptor occupancy",brain NK-1 receptors,0.04 mg/kg
same,change of average daily nausea score compared to pre-treatment,nausea in gastroparesis,reduced by approximately one half
same,change of average percentage of nausea-free days compared to pre-treatment,nausea in gastroparesis,doubled or greater
